The text below walks through data of PubChem BioAssay (NCI).

“And” between values parts separate entries of the source, which are not always exact repeats. Equal entries are not always repeated.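 In this assay, cells in 96-well plates receive the compound at five concentrations for 48 hours. Endpoints are linearly interpolated between the surrounding concentrations. GI50 marks 50% less growth. At the TGI there is no net growth.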

Test systems include SF-539 CNS; OVCAR-4 ovarian; SNB-75 CNS; PC-3 prostate; 786-0 renal; SF-295 CNS; KM12 colon; OVCAR-3 ovarian; SK-MEL-28 melanoma; SR leukemia.
Common to all, as to assay: NCI anticancer screen, dose series, 48 h

Consider `COc1cc(F)c(/C=C/c2cc(/C=C/c3cc(OC)c(OC)cc3F)n(-c3cc(F)cc(F)c3)n2)cc1OC`, for which the GI50 in the experiment with SF-539 CNS was 2.7 µM; with OVCAR-4 ovarian, 1.97 µM; in the experiment on SNB-75 CNS it was 2.42 µM; in the experiment with PC-3 prostate it was 2.66 µM; with 786-0 renal, 1.63 µM; with SF-295 CNS, 2.97 µM. The GI50 in the experiment on KM12 colon is 3.3 µM; in the experiment on OVCAR-3 ovarian, 2.47 µM; in the experiment on SK-MEL-28 melanoma it was 2.36 µM. Also, the TGI in the experiment on SF-539 CNS came out at 9.17 µM; in the experiment with OVCAR-4 ovarian, 5.75 µM; in the experiment on SNB-75 CNS, 14.4 µM; with PC-3 prostate, 8.17 µM; in the experiment on 786-0 renal it was 3.22 µM; with SF-295 CNS, 11.4 µM. The TGI in the experiment with KM12 colon came out at 12.8 µM; in the experiment with OVCAR-3 ovarian, 6.37 µM; with SK-MEL-28 melanoma it was 5.75 µM.
On to `Cc1ccc(Nc2cc(C)nc(NCCCNc3ccnc4cc(Cl)ccc34)n2)cc1`, for which the GI50 with SF-539 CNS is 1.59 µM; in the experiment on OVCAR-4 ovarian it was 1.24 µM; in the experiment with SNB-75 CNS, 1.3 µM; in the experiment on PC-3 prostate it was 1.57 µM; in the experiment on 786-0 renal, 1.73 µM; with SF-295 CNS it was 1.51 µM. Also, the GI50 in the experiment with KM12 colon was 1.69 µM; in the experiment on OVCAR-3 ovarian it was 1.7 µM; in the experiment on SK-MEL-28 melanoma, 1.62 µM. Also, the TGI in the experiment on SF-539 CNS came out at 3.05 µM; with OVCAR-4 ovarian, 2.82 µM; in the experiment with SNB-75 CNS it was 2.56 µM; in the experiment on PC-3 prostate, 3.79 µM; in the experiment with 786-0 renal, 3.31 µM; in the experiment with SF-295 CNS it was 2.92 µM. Moreover, the results for the TGI in the experiment on KM12 colon, in the experiment on OVCAR-3 ovarian and in the experiment with SK-MEL-28 melanoma were 3.26 µM, 3.5 µM and 3.06 µM, respectively.
In the case of `Cc1cnccc1N=Nc1ccc(N(C)C)cc1`, the TGI was 69.2 µM in the experiment on SF-539 CNS; 61.2 µM in the experiment with OVCAR-4 ovarian; 46.2 µM in the experiment with SNB-75 CNS; 97.3 µM in the experiment with PC-3 prostate; > 100 µM with 786-0 renal; 57.5 µM in the experiment on SF-295 CNS. Moreover, the TGI was > 100 µM in the experiment on KM12 colon, 72.1 µM with OVCAR-3 ovarian and 52.7 µM with SK-MEL-28 melanoma.
Regarding `Cn1cnc2c(F)c(Nc3ccc(Br)cc3F)c(C(=O)NOCCO)cc21`, the GI50 in the experiment on SF-539 CNS is > 3.24 µM and 21.5 µM; in the experiment on OVCAR-4 ovarian it was 8.06 µM; with PC-3 prostate, > 100 µM; with 786-0 renal, > 100 µM; with SF-295 CNS it was > 67.7 µM; in the experiment on KM12 colon it was 0.264 µM and 0.445 µM. In addition, the GI50 in the experiment on SR leukemia was > 47 µM; in the experiment on OVCAR-3 ovarian, > 100 µM; with SK-MEL-28 melanoma it was 0.0269 µM and 0.0304 µM. Besides, the TGI in the experiment with SF-539 CNS, in the experiment on OVCAR-4 ovarian, with PC-3 prostate, in the experiment on 786-0 renal, in the experiment on SF-295 CNS and in the experiment on KM12 colon was > 100 µM each time. In addition, the TGI with SR leukemia is > 100 µM; in the experiment on OVCAR-3 ovarian it was > 100 µM; with SK-MEL-28 melanoma, 0.321 µM and 0.889 µM.
With `COc1ccc(Cn2cc3c(c2-c2cc(OC)c(OC)c(OC)c2)CCc2cnoc2-3)cc1N`, the GI50 was 0.0344 µM with SF-539 CNS; 0.103 µM in the experiment with OVCAR-4 ovarian; 0.0751 µM in the experiment on PC-3 prostate; 0.0599 µM in the experiment on 786-0 renal; 0.0369 µM in the experiment with SF-295 CNS; 0.0401 µM in the experiment with KM12 colon. Moreover, the GI50 in the experiment with SR leukemia was 0.032 µM; with OVCAR-3 ovarian, 0.026 µM; with SK-MEL-28 melanoma it was 0.0797 µM. Moreover, the TGI with SF-539 CNS was > 100 µM; with OVCAR-4 ovarian it was > 100 µM; with PC-3 prostate it was > 100 µM; in the experiment on 786-0 renal it was > 23.2 µM; in the experiment on SF-295 CNS, > 100 µM; in the experiment with KM12 colon, 1.94 µM. For the same compound, the TGI is 1.39 µM in the experiment on SR leukemia, 0.0631 µM in the experiment with OVCAR-3 ovarian and > 100 µM in the experiment on SK-MEL-28 melanoma.
For `Fc1ccc2c(c1)C1=C(CO2)C(c2ccc(Cl)cc2)NC(=S)N1` (centres undefined), the GI50 is 23 µM in the experiment with SF-539 CNS; 51.9 µM with OVCAR-4 ovarian; 96.8 µM with SNB-75 CNS; 37.2 µM with PC-3 prostate; 21.3 µM in the experiment with 786-0 renal; 15.6 µM in the experiment with SF-295 CNS. The GI50 was 17.8 µM in the experiment on KM12 colon, 13 µM in the experiment with SR leukemia and 14.7 µM in the experiment on OVCAR-3 ovarian. The TGI in the experiment with SF-539 CNS is 44.1 µM; in the experiment with OVCAR-4 ovarian, > 100 µM; in the experiment on SNB-75 CNS it was > 100 µM; in the experiment with PC-3 prostate it was > 100 µM; in the experiment with 786-0 renal it was 46 µM; with SF-295 CNS, 47.3 µM. In addition, the TGI in the experiment with KM12 colon turned out to be 38.9 µM; in the experiment on SR leukemia it was 50.3 µM; with OVCAR-3 ovarian, 49.5 µM.
Turning to `Clc1ccc(CNc2nccc(-c3cnn4ncccc34)n2)cc1`, the GI50 in the experiment on SF-539 CNS was 6.25 µM; in the experiment with OVCAR-4 ovarian, 7.47 µM; with SNB-75 CNS, 6.28 µM; with PC-3 prostate, 6.76 µM; with 786-0 renal, 9.19 µM; in the experiment with SF-295 CNS, 5.36 µM. The GI50 in the experiment with KM12 colon was 5.55 µM; in the experiment with OVCAR-3 ovarian, 7.32 µM; in the experiment on SK-MEL-28 melanoma it was 5.64 µM. The TGI is 15.6 µM in the experiment on SF-539 CNS; > 25 µM with OVCAR-4 ovarian; 12.8 µM with SNB-75 CNS; > 24 µM in the experiment with PC-3 prostate; 24.4 µM in the experiment on 786-0 renal; > 18.2 µM in the experiment on SF-295 CNS. The TGI was determined as 15.5 µM with KM12 colon, 21.6 µM in the experiment on OVCAR-3 ovarian and 17.5 µM in the experiment on SK-MEL-28 melanoma.
With `O=C(CCSc1ccnc2c(C(F)(F)F)cccc12)N/N=C/c1cc(Cl)c(Cl)cc1Cl`, the GI50 with SF-539 CNS was 18 µM; in the experiment with OVCAR-4 ovarian, 25.4 µM; in the experiment on SNB-75 CNS, 20 µM; in the experiment on PC-3 prostate, 18 µM; in the experiment with 786-0 renal, 20.3 µM; with SF-295 CNS, 26.4 µM. Also, the GI50 is 29.7 µM in the experiment on KM12 colon, 20 µM with OVCAR-3 ovarian and 17 µM in the experiment with SK-MEL-28 melanoma. Besides, the TGI with SF-539 CNS is 35.4 µM; in the experiment with OVCAR-4 ovarian, 64.2 µM; with SNB-75 CNS it was 46.1 µM; in the experiment on PC-3 prostate, 36.7 µM; with 786-0 renal it was 35.1 µM; with SF-295 CNS, 62.3 µM. For the same compound, the TGI in the experiment on KM12 colon worked out at 77.9 µM; in the experiment with OVCAR-3 ovarian it was 44.5 µM; with SK-MEL-28 melanoma it was 32.5 µM.
Turning to `CC(C)CC12CC3CCC(CNC1=O)C32C` (centres undefined), the TGI with SF-539 CNS, with OVCAR-4 ovarian, in the experiment with SNB-75 CNS, in the experiment with 786-0 renal, in the experiment with SF-295 CNS and in the experiment with KM12 colon was > 100 µM throughout. Moreover, the TGI in the experiment on SR leukemia, in the experiment on OVCAR-3 ovarian and with SK-MEL-28 melanoma was > 100 µM in each case.
